Experimental data reported in US20250346600A1, “TRICYCLIC DERIVATIVES AND RELATED USES” (MOMA Therapeutics, Inc., priority 2023, published 2025).
Read-outs that look alike come from different tables or passages of the source.

Assays:
[1] = test system: HCT116 cells; assay: HCT116 (MSI) 7 day viability, CellTiter Glo; assay type: cell-based; conditions: 7 days, read-out: HCT116 (MSI) Viability 7 Day Abs AC50
Procedure: (§1) Compounds were dissolved in DMSO to a concentration of 10 mM. Compounds were then serially diluted in 10 3-fold steps in DMSO using an EVO (Tecan). Plates were then spun down for 1 minute at 1,000 RPM at room temperature.
(§2) The colon carcinoma lines HCT116 (RRID: CVCL_0291) and HT29 (RRID: CVCL_0320) were obtained from ATCC. […] All cells were maintained at 37° C. with 5% CO2 incubator.
(§3) After harvesting, cells were spun down for 5 minutes at 1200 RPM. Cells were resuspended in 10 mL of growth media and counted using Countess (Thermo Fisher). Cell concentrations were adjusted to 50 cells/well for HCT116 and 500 cells/well for HT29. 50 μL of diluted cells were added to compound treated 384 well plates using a 12 channel, 300 uL electronic handheld pipette (Integra). Cell treated plates were placed in 37 C with 5% CO2 incubator for 7 days.
(§4) Afterwards, cells were removed from incubator and equilibrated to room temperature for 15 minutes. 35 uL of CellTiter Glo (Promega #G7573) reagent were added to each well using a 12 channel, 300 uL electronic handheld pipette (Integra). Plates were incubated for 20 minutes at room temperature. Luminescence quantification was performed using Envision (PerkinElmer).
(§5) For data analysis, the assay background signal was determined in wells containing medium, but no cells. Potencies were calculated by linear least squares fit to the four-parameter logistic IC50 equation. The reported IC50 values are the geometrical mean of at least 2 independent replicates.

[2] = test system: HT29 cells; assay: HT29 (MSS) 7 day viability, CellTiter Glo; assay type: cell-based; conditions: 7 days, read-out: HT29 (MSS) Viability 7 Day CTGAbs AC50
Procedure: as §1, §2, §3, §4, §5

[3] = molecular target: Full length WRN protein (aa 2-1432) (Homo sapiens (Human), UniProt Q14191); assay: WRN ATPase ADP-Glo biochemical assay, Assay Format B (100 μM ATP); conditions: 0.25 nM WRN, 100 nM C6.18 ssDNA, 60 min preincubation, read-out: ATPase ADPGlo AC50 (uM)- Assay Format B
Full length WRN protein (aa 2-1432), sequence (Q14191 2-1432): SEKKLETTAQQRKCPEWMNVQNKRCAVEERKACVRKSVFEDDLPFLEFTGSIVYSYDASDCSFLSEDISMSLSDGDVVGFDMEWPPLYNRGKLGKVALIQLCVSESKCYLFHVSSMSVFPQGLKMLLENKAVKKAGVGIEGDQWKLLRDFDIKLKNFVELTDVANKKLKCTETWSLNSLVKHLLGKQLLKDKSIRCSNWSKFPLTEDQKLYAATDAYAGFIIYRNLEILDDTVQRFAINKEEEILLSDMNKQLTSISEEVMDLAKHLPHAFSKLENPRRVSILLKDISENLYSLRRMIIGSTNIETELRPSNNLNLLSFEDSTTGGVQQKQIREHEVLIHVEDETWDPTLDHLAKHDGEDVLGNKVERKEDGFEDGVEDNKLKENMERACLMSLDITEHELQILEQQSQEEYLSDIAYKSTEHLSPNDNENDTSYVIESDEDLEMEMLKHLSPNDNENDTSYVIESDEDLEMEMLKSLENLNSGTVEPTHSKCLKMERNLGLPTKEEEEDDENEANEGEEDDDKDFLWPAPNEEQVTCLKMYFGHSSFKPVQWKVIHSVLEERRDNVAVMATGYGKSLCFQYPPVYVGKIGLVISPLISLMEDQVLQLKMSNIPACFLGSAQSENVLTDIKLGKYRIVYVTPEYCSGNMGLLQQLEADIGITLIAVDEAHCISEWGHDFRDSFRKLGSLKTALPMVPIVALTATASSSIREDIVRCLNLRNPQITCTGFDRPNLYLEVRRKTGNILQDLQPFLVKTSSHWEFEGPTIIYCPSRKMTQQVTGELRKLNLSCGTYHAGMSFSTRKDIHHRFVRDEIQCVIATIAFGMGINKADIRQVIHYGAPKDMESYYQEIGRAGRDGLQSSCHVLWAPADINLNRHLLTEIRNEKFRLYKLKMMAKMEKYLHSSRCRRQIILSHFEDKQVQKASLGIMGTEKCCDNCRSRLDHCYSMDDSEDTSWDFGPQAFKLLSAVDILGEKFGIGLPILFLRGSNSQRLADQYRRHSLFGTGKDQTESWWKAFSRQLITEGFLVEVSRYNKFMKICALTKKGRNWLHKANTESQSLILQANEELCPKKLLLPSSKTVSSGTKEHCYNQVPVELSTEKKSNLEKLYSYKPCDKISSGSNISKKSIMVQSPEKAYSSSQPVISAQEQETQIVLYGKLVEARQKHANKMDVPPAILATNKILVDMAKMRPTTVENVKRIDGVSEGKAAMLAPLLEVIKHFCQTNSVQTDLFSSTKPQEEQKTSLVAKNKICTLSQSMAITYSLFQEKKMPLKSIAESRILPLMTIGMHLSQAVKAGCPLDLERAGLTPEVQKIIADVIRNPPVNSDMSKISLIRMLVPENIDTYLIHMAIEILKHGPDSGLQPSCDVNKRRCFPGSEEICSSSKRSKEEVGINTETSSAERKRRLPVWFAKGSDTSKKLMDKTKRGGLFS

Row | Molecule | AC50 [1] | AC50 [2] | AC50 [3] | AC50 ([1]; Homo sapiens, HCT-116, 168 h) | AC50 ([2]; Homo sapiens, HT-29, 168 h)
1 | 1-(5-(7-bromo-1H- benzo[d]imidazole-4- carbonyl)-2-(4- cyclobutylphenyl)- 2,3,4,5,5a,6-hexahydro- 1,2,5,7- tetraazaspiro[benzo[cd] azulene-9,1′- cyclopropan]-1(9a),2a- dien-7(8H)-yl)prop-2-en- 1-one [Compound 169] | 0.001 to 0.1 µM | > 3 µM |  |  | 
2 | C=CC(=O)N1CCc2nn(-c3ccc(C(C)C)c(F)c3O)c3c2C(C1)N(C(=O)c1cnc(C(F)(F)F)c(O)c1)CC3 (stereo not shown) [Compound 64, 1-(2-(3-fluoro-2-hydroxy-4-isopropylphenyl)-5-(5-hydroxy-6-(trifluoromethyl)nicotinoyl)-2,3,4,5,5a,6,8,9-octahydro-7H-1,2,5,7-tetraazabenzo[cd]azulen-7-yl)prop-2-en-1-one] |  |  | 0.015 to 0.055 µM | 0.001 to 0.1 µM | > 3 µM
3 | C=CC(=O)N1CCc2nn(-c3ccc(C4CCC4)c(F)c3N)c3c2C(C1)N(C(=O)c1cnc(C(F)(F)F)c(O)c1)CC3 (stereo not shown) [Compound 71, 1-(2-(2-amino-4-cyclobutyl-3-fluorophenyl)-5-(5-hydroxy-6-(trifluoromethyl)nicotinoyl)-2,3,4,5,5a,6,8,9-octahydro-7H-1,2,5,7-tetraazabenzo[cd]azulen-7-yl)prop-2-en-1-one] |  |  | 0.005 to 0.015 µM | 0.001 to 0.1 µM | > 3 µM
4 | C=CC(=O)N1CCc2nn(-c3ccc(C4CCC4)cc3O)c3c2C(C1)N(C(=O)c1ccc(C(F)(F)F)nc1N)CC3 (stereo not shown) [Compound 76, 1-(5-(2-amino-6-(trifluoromethyl)nicotinoyl)-2-(4-cyclobutyl-2-hydroxyphenyl)-2,3,4,5,5a,6,8,9-octahydro-7H-1,2,5,7-tetraazabenzo[cd]azulen-7-yl)prop-2-en-1-one] |  |  | 0.005 to 0.015 µM | 0.001 to 0.1 µM | > 3 µM
5 | C=CC(=O)N1CCc2nn(-c3ccc(C4CCC4)cc3O)c3c2C(C1)N(C(=O)c1ccc(Br)c2[nH]c(OC(F)F)nc12)CC3 (stereo not shown) [Compound 88, 1-(5-(7-bromo-2-(difluoromethoxy)-1H-benzo[d]imidazole-4-carbonyl)-2-(4-cyclobutyl-2-hydroxyphenyl)-2,3,4,5,5a,6,8,9-octahydro-7H-1,2,5,7-tetraazabenzo[cd]azulen-7-yl)prop-2-en-1-one] |  |  | 0.005 to 0.015 µM | 0.001 to 0.1 µM | > 3 µM
6 | C=CC(=O)N1CCc2nn(-c3ccc(C4CCC4)cc3O)c3c2C(C1)N(C(=O)c1cnc(Br)c(OC(F)F)c1)CC3 (stereo not shown) [Compound 94, 1-(5-(6-bromo-5-(difluoromethoxy)nicotinoyl)-2-(4-cyclobutyl-2-hydroxyphenyl)-2,3,4,5,5a,6,8,9-octahydro-7H-1,2,5,7-tetraazabenzo[cd]azulen-7-yl)prop-2-en-1-one] |  |  | 0.015 to 0.055 µM | 0.001 to 0.1 µM | > 3 µM
7 | C=CC(=O)N1CCOc2nn(-c3ccc(C(C)C)c(O)n3)c3c2C(C1)N(C(=O)c1ccc(Br)c2[nH]cnc12)CC3 (stereo not shown) [Compound 105, 1-(5-(7-bromo-1H-benzo[d]imidazole-4-carbonyl)-2-(6-hydroxy-5-isopropylpyridin-2-yl)-2,3,4,5,5a,6,8,9-octahydro-7H-10-oxa-1,2,5,7-tetraazacycloocta[cd]inden-7-yl)prop-2-en-1-one] |  |  |  | > 1 µM | > 3 µM
8 | C=CC(=O)N1CCc2nn(-c3ccc(C4CCC4)cc3O)c3c2C(C1)N(C(=O)c1cnc(Br)cc1N)CC3 (stereo not shown) [Compound 132, 1-(5-(4-amino-6-bromonicotinoyl)-2-(4-cyclobutyl-2-hydroxyphenyl)-2,3,4,5,5a,6,8,9-octahydro-7H-1,2,5,7-tetraazabenzo[cd]azulen-7-yl)prop-2-en-1-one] |  |  | 0.0015 to 0.005 µM | 0.001 to 0.1 µM | > 3 µM
9 | C=CC(=O)N1CCc2nn(-c3ccc(C4CCC4)cc3O)c3c2C(C1)N(C(=O)c1cnc(Cl)c(O)c1)CC3 (stereo not shown) [Compound 140, 1-(5-(6-chloro-5-hydroxynicotinoyl)-2-(4-cyclobutyl-2-hydroxyphenyl)-2,3,4,5,5a,6,8,9-octahydro-7H-1,2,5,7-tetraazabenzo[cd]azulen-7-yl)prop-2-en-1-one] |  |  | 0.005 to 0.015 µM | 0.001 to 0.1 µM | > 3 µM
10 | C=CC(=O)N1CCc2nn(-c3ccc(C4CCC4)cc3)c3c2C(C1)N(C(=O)c1ccc(C(F)(F)F)c2[nH]nc(N)c12)CC3 (stereo not shown) [Compound 147, 1-(5-(3-amino-7-(trifluoromethyl)-1H-indazole-4-carbonyl)-2-(4-cyclobutylphenyl)-2,3,4,5,5a,6,8,9-octahydro-7H-1,2,5,7-tetraazabenzo[cd]azulen-7-yl)prop-2-en-1-one] |  |  | 0.005 to 0.015 µM | 0.001 to 0.1 µM | > 3 µM
11 | C=CC(=O)N1CCc2nn(-c3ccc(C4CCC4)cc3O)c3c2C(C1)N(C(=O)c1cnc(OC(F)F)cc1N)CC3 (stereo not shown) [Compound 164, 1-(5-(4-amino-6-(difluoromethoxy)nicotinoyl)-2-(4-cyclobutyl-2-hydroxyphenyl)-2,3,4,5,5a,6,8,9-octahydro-7H-1,2,5,7-tetraazabenzo[cd]azulen-7-yl)prop-2-en-1-one] |  |  | 0.0015 to 0.005 µM | 0.001 to 0.1 µM | > 3 µM
12 | C=CC(=O)N1CCc2nn(-c3ccc(C4CCC4)cc3O)c3c2C(C1)N(C(=O)c1cc(F)c(C(F)(F)F)nc1N)CC3 (stereo not shown) [Compound 165, 1-(5-(2-amino-5-fluoro-6-(trifluoromethyl)nicotinoyl)-2-(4-cyclobutyl-2-hydroxyphenyl)-2,3,4,5,5a,6,8,9-octahydro-7H-1,2,5,7-tetraazabenzo[cd]azulen-7-yl)prop-2-en-1-one] |  |  | 0.015 to 0.055 µM | 0.001 to 0.1 µM | > 3 µM
13 | C=CC(=O)N1CCc2nn(-c3ccc(C(C)C)cc3)c3c2C(C1C)N(C(=O)c1cnc(C(F)(F)F)cc1N)CC3 (stereo not shown) [Compound 168, 1-(5-(4-amino-6-(trifluoromethyl)nicotinoyl)-2-(4-isopropylphenyl)-6-methyl-2,3,4,5,5a,6,8,9-octahydro-7H-1,2,5,7-tetraazabenzo[cd]azulen-7-yl)prop-2-en-1-one] |  |  | 0.005 to 0.015 µM | 0.001 to 0.1 µM | > 3 µM
14 | C=CC(=O)N1CCc2nn(-c3ccc(C4CCC4)cc3C#N)c3c2C(C1)N(C(=O)c1cnc(C(F)(F)F)cc1N)CC3 (stereo not shown) [Compound 171, 2-(7-acryloyl-5-(4-amino-6-(trifluoromethyl)nicotinoyl)-3,4,5,5a,6,7,8,9-octahydro-2H-1,2,5,7-tetraazabenzo[cd]azulen-2-yl)-5-cyclobutylbenzonitrile] |  |  | 0.015 to 0.055 µM | 0.001 to 0.1 µM | > 3 µM
15 | C=CC(=O)N1CCc2nn(-c3ccc(C4CC4)cc3O)c3c2C(C1)N(C(=O)c1ccc(C(F)(F)F)nc1N)CC3 (stereo not shown) [Compound 172, 1-(5-(2-amino-6-(trifluoromethyl)nicotinoyl)-2-(4-cyclopropyl-2-hydroxyphenyl)-2,3,4,5,5a,6,8,9-octahydro-7H-1,2,5,7-tetraazabenzo[cd]azulen-7-yl)prop-2-en-1-one] |  |  | 0.005 to 0.015 µM | 0.001 to 0.1 µM | > 3 µM
16 | C=CC(=O)N1CCc2nn(-c3ccc(C(C)C)cc3O)c3c2C(C1)N(C(=O)c1ccc(C(F)(F)F)nc1N)CC3 (stereo not shown) [Compound 173, 1-(5-(2-amino-6-(trifluoromethyl)nicotinoyl)-2-(2-hydroxy-4-isopropylphenyl)-2,3,4,5,5a,6,8,9-octahydro-7H-1,2,5,7-tetraazabenzo[cd]azulen-7-yl)prop-2-en-1-one] |  |  | 0.005 to 0.015 µM | 0.001 to 0.1 µM | > 3 µM
17 | C=CC(=O)N1CCc2nn(-c3ccc(C4CC4)cc3O)c3c2C(C1)N(C(=O)c1cnc(C(F)(F)F)c(O)c1)CC3 (stereo not shown) [Compound 175, 1-(2-(4-cyclopropyl-2-hydroxyphenyl)-5-(5-hydroxy-6-(trifluoromethyl)nicotinoyl)-2,3,4,5,5a,6,8,9-octahydro-7H-1,2,5,7-tetraazabenzo[cd]azulen-7-yl)prop-2-en-1-one] |  |  | 0.0015 to 0.005 µM | 0.1 to 0.25 µM | > 3 µM
18 | C=CC(=O)N1CCc2nn(-c3ccc(C(C)C)cc3O)c3c2C(C1)N(C(=O)c1cnc(C(F)(F)F)c2[nH]ncc12)CC3 (stereo not shown) [Compound 176, 1-(2-(2-hydroxy-4-isopropylphenyl)-5-(7-(trifluoromethyl)-1H-pyrazolo[3,4-c]pyridine-4-carbonyl)-2,3,4,5,5a,6,8,9-octahydro-7H-1,2,5,7-tetraazabenzo[cd]azulen-7-yl)prop-2-en-1-one] |  |  | 0.0015 to 0.005 µM | 0.001 to 0.1 µM | > 3 µM
19 | C=CC(=O)N1CCc2nn(-c3ccc(C4CC4)cc3)c3c2C(C1)N(C(=O)c1cnc(OC(F)F)cc1N)CC3 (stereo not shown) [Compound 177, 1-(5-(4-amino-6-(difluoromethoxy)nicotinoyl)-2-(4-cyclopropylphenyl)-2,3,4,5,5a,6,8,9-octahydro-7H-1,2,5,7-tetraazabenzo[cd]azulen-7-yl)prop-2-en-1-one] |  |  | 0.005 to 0.015 µM | 0.001 to 0.1 µM | > 3 µM
